From the CheMixHub viscosity set

Assay: xn = mol fraction of the nth substance listed

CCCCCCCC(=O)O + c1ccccc1
298.15 K, 101 kPa
Conditions	viscosity [mPa·s]
x1 = 0.03	0.638
x1 = 0.057	0.68
x1 = 0.087	0.727
x1 = 0.12	0.781
x1 = 0.27	1.072
x1 = 0.35	1.295
x1 = 0.45	1.591
x1 = 0.68	2.505

CC(C)C(C)O (configuration not stated) + NCc1ccccc1
viscosity [mPa·s], 101.33 kPa
Conditions	x2 = 0.0999	x2 = 0.2	x2 = 0.3002	x2 = 0.4001	x2 = 0.4997	x2 = 0.5998	x2 = 0.6999	x2 = 0.7997	x2 = 0.9
298.15 K	3.336	3.109	2.89	2.683	2.49	2.315	2.131	1.96	1.81
303.15 K	2.903	2.663	2.443	2.249	2.084	1.927	1.792	1.673	1.571
308.15 K	2.388	2.184	2.009	1.853	1.724	1.614	1.521	1.449	1.404

CCCCOC(C)=O + c1ccccc1
viscosity [mPa·s], 101 kPa
Conditions	298.15 K	308.15 K
x1 = 0.0487	0.601	0.527
x1 = 0.1494	0.598	0.528
x1 = 0.2494	0.598	0.532
x1 = 0.3494	0.6	0.536
x1 = 0.4454	0.604	0.541
x1 = 0.4954	0.607	0.544
x1 = 0.5489	0.611	0.548
x1 = 0.6497	0.62	0.556
x1 = 0.7503	0.632	0.565
x1 = 0.8496	0.647	0.575
x1 = 0.9424	0.663	0.586

O=C(O)c1cc(O)c(O)c(O)c1 + CO
viscosity [mPa·s], 101 kPa
Conditions	293.15 K	298.15 K	303.15 K	308.15 K	313.15 K
x1 = 0.0019	0.634	0.595	0.551	0.517	0.491
x1 = 0.0038	0.664	0.62	0.576	0.542	0.505
x1 = 0.0058	0.699	0.66	0.604	0.562	0.528
x1 = 0.0078	0.734	0.684	0.635	0.591	0.55
